# Entries after “also recorded” stand apart in the source; their conditions may differ. Where two headings read alike, the source gives them in different places.
# Assays:
# [1] = test system: 8505C tumors; assay: Staining of excised xenograft tumors (Ki-67, cleaved PARP, PAS glycogen); type: in vivo, mouse
# [2] = test system: 8505C tumors; assay: 8505C xenograft tumor growth in nude mice; type: in vivo, mouse; details: intraperitoneal, 50 mg/kg CP-91,149, 10 mg/kg sorafenib, 6-7 days a week
# Description: Ethics statement and animal modeling—All animal procedures were approved by Institutional Animal Care and Use Committee (IACUC) at the University of Vermont. All animals were maintained in pathogen-free conditions and cared for in accordance with IACUC policies and certification. All surgeries were performed with isoflurane anesthesia. Temperature-controlled post-surgical monitoring was implemented to minimize suffering. Mice carrying anaplastic thyroid tumors were euthanized at designated time points for tumor collection. Signs of ulceration or a maximum individual tumor size of 2000 mm^3 were used as a protocol-enforced endpoint.
# Mice were given food and water ad libitum. […] These doses were based on previous reports.
# [3] = test system: Nthy-ori-3-1 cells; assay: Immunoblot of apoptosis markers and Ki-67 in normal thyroid cells; type: cell-based, human
# Description: (§1) Briefly, proteins were isolated from whole cells in lysis buffer (20 mM Tris-HCl (pH 8), 137 mM NaCl, 10% glycerol, 1% Triton X-100, and 2 mM EDTA), quantified via Pierce™ BCA Protein Assay Kit (Thermo Fisher Scientific), and 25 μg protein/sample were resolved by polyacrylamide gel electrophoresis and immobilized onto nitrocellulose membranes. Membranes were blocked with 5% w/v BSA in TBS and 0.1% v/v Tween20 (Gold Bio, St Louis, MO, USA) for one hour at room temperature and incubated with primary antibodies overnight. Membranes were washed with TBS-0.1% Tween20 and secondary antibodies were applied for 1 hour at room temperature in 5% w/v BSA in TBS and 0.1% v/v Tween20. Immunoreactive proteins were detected by enhanced chemiluminescence (Thermo Scientific) on a ChemiDoc XRS+ (Bio-Rad Laboratories). Densitometry analysis was performed using ImageJ.
# [4] = test system: 8505C cells; assay: SRB cell viability assay in ATC cells; type: cell-based, human
# Description: In Vitro Cell Staining for Measuring Drug Efficacy—Thyroid cells (4.0×10^3) were seeded in 96 well plates with 100 μl CTM and allowed to adhere overnight. 100 μl of CTM containing 2× concentration of compound was overlayed in each well for 48 hours unless otherwise indicated. Each well then received 100 μl of 10% w/v cold trichloroacetic acid (Fisher) and incubated at 4° C. for 1 hour to fix the cells. Each well was rinsed 3× with DI H2O and stained with 100 μl 0.057% w/v sulforhodamine B (SRB, Sigma-Aldrich) for 30 minutes at room temperature in the dark. Wells were washed 4× with 300 μl 1% v/v acetic acid (Fisher), and remaining SRB stain was solubilized with 200 μl of 10 mM Tris buffer, pH 10.5 (Fisher). Absorbance was measured at 564 nm with a Synergy 2 Multi-Detection Microplate Reader (Agilent Technologies) and normalized to a vehicle control. Drug synergy was evaluated using the coefficient of drug interaction (CDI) formula: CDI=AB/(A×B)×100, where AB is the percent remaining cells of an indicated combination treatment, A is the average percent remaining cells of agent 1 alone, and B is the average percent remaining cells of agent 2 alone. […] Hao et al., “Effect of Lumiracoxib on Proliferation and Apoptosis of Human Nonsmall Cell Lung Cancer Cells In vitro,” Chin Med J (Engl) 121:602-607 (2008), which is hereby incorporated by reference in its entirety. […]
# [5] = test system: 8505C cells; assay: RT-qPCR of glucose transporter expression; type: cell-based, human; details: 50 μM CP-91,149, 24 hours
# Text: RNA Extraction and Quantitative Real-Time PCR (qRT-PCR)—Total RNA was extracted using RNeasy Plus Kit (Qiagen) according to manufacturer's protocol. cDNA was synthesized using LunaScript® RT SuperMix Kit (New England Biolabs). Gene expression to validate RNA-seq analysis was quantified by qRT-PCR using Luna® Universal qPCR Master Mix (New England Biolabs) on a QuantStudio 3 real-time PCR system (Thermo Fisher Scientific). Fold change in gene expression compared to endogenous controls was calculated using the ddCT method.
# [6] = test system: 8505C cells; assay: Metabolic flux analysis (Seahorse ECAR and OCR); type: cell-based, human; details: for extracellular acidification rate (ECAR): 8505C cells; for oxygen consumption rate (OCR): 50 μM CP-91,149, 24 hours
# Description: Metabolic Flux Analysis—Thyroid cells (5.0×10^4) were plated in a 96 well Seahorse culture plate with compounds of interest diluted in 200 μl CTM for 24 hours. Cells were washed with PBS and equilibrated for 1 hour at 37° C. in a non-CO2 incubator with compounds of interest diluted in Seahorse RPMI (supplemented with 11.1 mM glucose, 2 mM glutamine, and 5% serum) before analysis of OCR and ECAR in a Metabolic Flux Analyzer (Seahorse Bioscience, North Billerica, MA 96XP).
# [7] = test system: PYG isoforms; details: cited from earlier work
# [8] = test system: 8505C cells; assay: Immunoblot of apoptosis markers and Ki-67 in ATC cells; type: cell-based, human; details: for apoptosis (PARP, caspase 9 and caspase 7 cleavage): six hours
# Description: as §1
# [9] = test system: 8505C cells; assay: Reactive oxygen species quantification (H2DCFDA); type: cell-based, human; details: for reactive oxygen species (ROS) levels: 8505C ATC cells
# Description: Quantification of Reactive Oxygen Species—Thyroid cells (1.0-2.0×10^4) were seeded in a black 96 well plate in 200 μl CTM and allowed to adhere overnight. Wells were washed with PBS and incubated with or without 25 μM H2DCFDA for 45 minutes at 37° C. in a non-CO2 incubator with compounds of interest diluted in phenol-red free RPMI (supplemented with 2 mM glutamine and 10% charcoal-stripped serum). Wells were washed with PBS and received compounds of interest diluted in phenol-red free, supplemented RPMI and incubated at 37° C. in a SpectraMax M4 Microplate Reader (Molecular Devices) to record fluorescent measurements (Ex/Em=485/535 nm) every 15 minutes overnight. Maximum fluorescence intensity was determined (~6 hours), background signal (—H2DCFDA) was subtracted from each group, and corrected values were normalized to the vehicle control.
# [10] = immunofluorescence of excised tumors
structure (smiles),measurement,setting,value
"CN(C)C(=O)[C@H](O)[C@H](Cc1ccccc1)NC(=O)c1cc2cc(Cl)ccc2[nH]1 [CP-91,149, 5-chloro-N-[(2S,3R)-4-(dimethylamino)-3-hydroxy-4-oxo-1-phenylbutan-2-yl]-1H-indole-2-carboxamide]",glycogen in tumor tissue (PAS staining),[1]; excised tumors,significantly increased the level of glycogen in the tumor tissue
same,Ki-67 expression in xenograft tumors,[1]; [10],reduction in Ki-67 expression
same,apoptosis (PARP cleavage) in xenograft tumors,[1]; [10],induces apoptosis in vivo
same,apoptosis (PARP cleavage) in xenograft tumors,"[1]; immunofluorescence of excised tumors, listed as CP",profoundly induced apoptosis
same,tumor growth,[2],significantly impaired tumor growth in vivo; also recorded: severely blunted ATC tumor growth in vivo; also recorded: restrict ATC tumor growth
same,tumor growth,[2]; listed as CP,notably stunted; also recorded: equally as effective as sorafenib
same,apoptosis (PARP and caspase cleavage),[3],but not normal thyroid cells
same,apoptosis (PARP and caspase cleavage),[3]; listed as CP,did not significantly induce apoptosis
same,proliferation (Ki-67 levels),[3]; listed as CP,not affected
same,cell viability with excess (2 mM) pyruvate,"[4]; 8505C cells, 48 hours",nearly identical to the pyruvate-depleted group
same,cell viability with excess (25 mM) glucose,"[4]; 8505C cells, 48 hours",rescued cell viability
same,cell viability with pyruvate depletion,"[4]; 8505C cells, 48 hours",able to compensate for loss of pyruvate
same,total cell viability,"[4]; ATC cells, 48 hours at 50 μM",modestly but significantly reduced total cell viability
same,"cell viability, concentration and time dependence (SRB assay)",[4]; various concentrations and time points,concentration-dependent decrease in cell viability; also recorded: decreases 8505C cell viability in a time-dependent manner
same,SLC2A1 (GLUT1) expression,[5]; 149,increases the expression
same,SLC2A3 (GLUT3) expression,[5]; 149,increases the expression
same,SLC2A4 (GLUT4) expression,[5]; 149,increases the expression
same,SLC2A1 (GLUT1) expression,[5]; listed as CP,increase
same,SLC2A3 (GLUT3) expression,[5]; listed as CP,increase
same,SLC2A4 (GLUT4) expression,[5]; listed as CP,did not change
same,extracellular acidification rate (ECAR),[6],enhances extracellular acidification rate
same,extracellular acidification rate (ECAR),[6]; listed as CP,modestly but significantly enhanced ECAR
same,increase of OCR to compensate for inhibition of glycolysis with 2-DG,"[6]; ATC cells, CP-treated versus vehicle-treated",unable to increase their oxidative phosphorylation
same,oxygen consumption rate (OCR),[6]; ATC cells,decreases the basal oxygen consumption rate
same,oxygen consumption rate (OCR),"[6]; ATC cells, listed as CP",significantly limited the OCR
same,inhibition of PYG isoforms,[7],inhibits all PYG isoforms
same,proliferation marker Ki-67 expression,[8],inhibits proliferation
same,proliferation marker Ki-67 expression,[8]; listed as CP,reduced expression of the proliferation marker Ki-67
same,"apoptosis (PARP, caspase 9 and caspase 7 cleavage)",[8],induced apoptosis in ATC cells
same,"apoptosis (PARP, caspase 9 and caspase 7 cleavage)",[8]; listed as CP,"significant PARP, caspase 9, and caspase 7 cleavage"
same,"apoptosis (PARP, caspase 9 and caspase 7 cleavage)","[8]; listed as CP-911,49",induces apoptosis
same,reactive oxygen species (ROS) levels,[9],induced reactive oxygen species accumulation; also recorded: enhances the relative levels of reactive oxygen species
same,reactive oxygen species (ROS) levels,[9]; listed as CP,three-fold increase; also recorded: higher in cells treated with CP compared to 2-DG
same,ROS levels with excess glucose,[9]; 8505C cells,excess glucose reduced ROS levels only in CP-treated cells

# Source: patent US20260199289A1, “USE OF GLYCOGEN METABOLISM INHIBITORS FOR THE TREATMENT OF CANCER” (THE UNIVERSITY OF VERMONT AND STATE AGRICULTURAL COLLEGE, priority 2022, published 2026)
